Laboratory results as given in PMC10046901, “Molecular Analysis of the Superior Efficacy of a Dual Epidermal Growth Factor Receptor (EGFR)-DNA-Targeting Combi-Molecule in Comparison with Its Putative Prodrugs 6-Mono-Alkylamino- and 6,6-Dialkylaminoquinazoline in a Human Osteosarcoma Xenograft Model” (Cells, 2023).

What was measured:
[1] = test system: several other osteosarcoma cell lines; set-up: method as in PMID 23091447; details: concentrations of up to 20 μM; cited from earlier work
U2-OS = assay: cells; format: cell-based; details: Homo sapiens, U2OS, 120 h, read-out: IC50 growth inhibition
MG-63 = assay: cells; format: cell-based; details: Homo sapiens, MG-63, 120 h, read-out: IC50 growth inhibition
Saos-2 = assay: cells; format: cell-based, human; details: Homo sapiens, SAOS-2, 120 h, read-out: IC50 growth inhibition
KHOS/NP = assay: cells; format: cell-based; details: Homo sapiens, 120 h, read-out: IC50 growth inhibition
MNNG/HOS = assay: cells; format: cell-based; details: 120 h, read-out: IC50 growth inhibition

Structure (SMILES): COc1cc2ncnc(Nc3ccc(F)c(Cl)c3)c2cc1OCCCN1CCOCC1 [Gefitinib, gefitinib]
- effect on viability of osteosarcoma cell lines [1]: did not reduce the viability

Structure (SMILES): O=C(O)CCCc1ccc(N(CCCl)CCCl)cc1 [Chlorambucil, chlorambucil, reference compound]
- IC50 (U2-OS): 9.59 ± 0.55 µM
- IC50 (MG-63): 13.1 ± 1.28 µM
- IC50 (Saos-2): 7.53 ± 0.75 µM
- IC50 (KHOS/NP): 9.25 ± 1.35 µM
- IC50 (MNNG/HOS): 12.1 ± 1.01 µM
